Bounds are passed on as bounds.

One may read the melting point as the temperature, or range, at which the solid turns liquid.

As to `CCCCCCc1ccc(CCCCC(NC(C)=O)(C(=O)OCC)C(=O)OCC)cc1`, the melting point was in the range of 57 to 58 °C. As for `COc1cc(COc2nn(-c3ccccc3)cc2C=C(C#N)C#N)ccc1OCc1nc(-c2ccco2)oc1C`, the melting point is 190 to 191 °C.

The compound `CN1CC[C@@H](c2c(O)cc(O)c3c(=O)cc(-c4cccc(Cl)c4)oc23)[C@@H]1CO` gave a melting point of 146 to 147 °C. Next, `CCCCCCCCC1C=C(Oc2ccc(C(=O)O)o2)C=C2N=C3CCCCC3=C21` (stereo not given): 142 to 144 °C; `CC(=O)Nc1ccc(S(=O)(=O)Nc2ccccc2)cc1`: 209 to 210 °C; `Sc1nc2ccc(Cl)cc2c2nc(-c3ccc(Br)o3)nn12`: 273 to 276 °C.

In turn, `Fc1ccc(-c2nc3n(c2-c2ccnc(Nc4ccccc4)c2)CCS3)cc1` had a melting point of 299 °C.

`COC(=O)c1ccc(Cc2csc3ccc(NC(=O)OC4CCCC4)cc23)c(OC)c1` showed a melting point of 163 to 164 °C. Next, `COC(=O)C=CC1=CC2=CNC=C3CC(N(C)C)C(=C23)CO1` (stereo not given): 168 to 170 °C; `CNC(=O)N1C=CSC1c1sc(SC)c2c1CC(C)(C)CC2=O` (stereo not given): 202 to 204 °C; `O=C(O)CCCCCc1nc2ccccc2s1`: 71 to 72 °C. Take `O=C(O)c1ccc2c(c1)nc(-c1ccc(OCc3cc(Cl)ccc3-c3ccc(Cl)cc3)cc1)n2C1CCCCC1`: the melting point was 243 to 244 °C.

In turn, `CC(=O)C(=Cc1ccc(S(C)(=O)=O)cc1)C(C)=O` yielded a melting point of 139 to 140 °C.

With `Cc1nn(-c2ccccn2)c2ncc(C(=O)NC3CCCCC3)c(O)c12`, the melting point was more than 300 °C.

For `O=Cc1c2ccccc2c(OCCOCc2ccccc2)c2ccccc12`, the melting point was 68 to 69 °C.

In the case of `CC(=O)OC1C(COC(=O)c2ccccc2)OC(n2ccc(=O)[nH]c2=O)C1F` (stereo not given), the melting point was in the range of 179 to 180 °C.

Consider `COC(=O)CCCc1cc2cc(Cl)ccc2n1S(=O)(=O)c1ccc2c(c1)CCN2C(C)=O`, for which the melting point lay in the range of 162 to 165 °C.

On to `O=C(O)CCCCCCCCCCn1nnnc1S`, for which the melting point fell in the range of 95 to 98 °C.

For the compound `O=C1CN(c2ccccc2)C(=O)N1C1CCCCC1`, the melting point was 196 °C. For `CSc1nnc(Cc2ccccc2S(N)(=O)=O)s1`, the melting point is 175 to 178 °C. `CO[C@H]1CN(c2c(F)c(N)c3c(=O)c(C(=O)O)cn([C@@H]4C[C@@H]4F)c3c2C)C[C@@H]1C1(N)CC1` returned a melting point of 202 to 204 °C.

`Cc1ccc(N2C(=O)C(O)=C(C(=O)c3ccc(C(C)C)cc3)C2c2ccc(OC(C)C)cc2)nn1` (stereo not given) registered a melting point of 280 to 281 °C.

On to `COc1c([N+](=O)[O-])cc(C=O)c(Cl)c1OC(C)=O`, for which the melting point lay in the range of 84 to 85 °C. Next, `COCC(=O)N(c1c(C)ccc2ccccc12)C(CCO)C(=O)OC` (stereo not given): 132 to 137 °C; `COc1c([N+](=O)[O-])ccc(C=O)c1OS(=O)(=O)c1ccccc1`: 74 to 76 °C. Next, `C#CC(C)Oc1cc(Cl)ccc1-n1c(=O)cc(C(F)(F)F)n(C)c1=O` (stereo not given): 96 to 99 °C; `CCOC(=O)c1ccc2c(c1)sc1cc(N(C)C)ccc12`: 160 to 162 °C. Next, `CSC(=C(C#N)C#N)N(C)N=Cc1ccccc1`: 159 to 160 °C. Regarding `COC(=O)CCc1cc2cc(F)c(Cl)cc2n1S(=O)(=O)c1ccccc1`, the melting point lay in the range of 127 to 130 °C. In the case of `COc1cc2c(cc1OC)CN(C(=O)Cc1ccc(OC)c([N+](=O)[O-])c1)CC2` it was 175 °C.

`CC(=O)c1nc(C)c[nH]1` registered a melting point of 113 to 115 °C. Take `CCCCCCSCC(O)COc1cccc2oc(C(=O)O)cc(=O)c12` (stereo not given): the melting point lay in the range of 97 to 100 °C. In the case of `COc1cc(OC)c2c(-c3cc(F)cc(F)c3)coc2c1` it was 102 to 103 °C; in that of `O=C(O)[C@H](CCc1ccccc1)NS(=O)(=O)c1ccc2c(c1)sc1ccccc12`, 210 to 212 °C; in that of `CC12CCC3C(CC=C4C=C(N5CCCC5)CCC43C)C1CCC2=O` (stereo not given), 217 to 220 °C.

With `Sc1nnc(-c2ccc(Cl)cc2)s1`, the melting point worked out at 178 °C. For the compound `COC(=O)C1=C(C)NC2=C(C(=O)CN(Cc3ccccc3)C2)C1c1ccccc1C` (stereo not given), the melting point lay in the range of 201 to 204 °C. Next, `CCOC(=O)N1CCCOc2cc(N)ccc21`: 140 to 143 °C; `O=C(c1ccc(F)cc1)C1CCN(C2CN(Cc3ccncc3)CCC2O)CC1` (stereo not given): 182 °C.

`N#CCCNC(=O)c1n[nH]cc1NC(=O)c1ccc(Br)o1` displayed a melting point of 220 to 222 °C. Next, `C/C(Cl)=C/CC(C)(C(=O)O)C(=O)O`: 99 to 101 °C; `CC(C)(C)OC(=O)NC(Cc1cnc2ccccc2c1)C(=O)O` (stereo not given): 159 to 160 °C.

Compound `O=C(NCCc1ccccc1CCl)c1ccc([N+](=O)[O-])cc1` had a melting point of 126 °C. Turning to `O=C(O)/C=C1\CCc2c(Cl)cc(F)cc21`, the melting point is 229 to 230 °C. In turn, `CC(SC1COC(c2ccc(C(=O)Nc3ccc(C(F)(F)F)cc3)cc2)OC1)C(O)(Cn1cncn1)c1ccc(F)cc1F` (stereo not given) registered a melting point of 210 °C. In the case of `CCC(CC)N(Cc1ccc(C(=O)OC)cc1)S(=O)(=O)c1ccc(C)cc1` it was 106 to 108 °C; in that of `CCN(Cc1ccc(Cl)nc1)C(=NC)C(=Cc1ccco1)[N+](=O)[O-]`, 155 to 156 °C; in that of `Clc1ccc(-c2nc3cccnc3[nH]2)cc1`, 305 to 308 °C. In the case of `CC12CCCC1C1CCc3cc(F)ccc3C1CC2` (stereo not given) it was 178 °C; in that of `ClC1=Nc2cc(Cl)ccc2Oc2cscc21`, 180 to 182 °C. As to `O=C1COc2ccc(C3=Cc4ccc(NCCCO)cc4OC3c3ccccc3)cc2N1` (stereo not given), the melting point was in the range of 215 to 217 °C. As to `CC(=O)CC(=O)NC1CCCCCC1`, the melting point amounted to 52 °C. Compound `CCOC(=O)c1cnc2ccc(OC)nc2c1Cl` came in with a melting point of 98 to 100 °C.

In turn, `NC1=NC(c2cccc(-c3cccnc3F)c2)(c2cnn(CC(F)(F)F)c2)C2=NCCCN12` (stereo not given) displayed a melting point of 106 to 116 °C. Next, `COC(=O)c1cc(=O)c2cc(F)ccc2o1`: 138 to 139 °C; `N#Cc1cnn2c1N(C(=O)CI)CC=C2c1cccc(C(F)(F)F)c1`: 158 to 160 °C. `CCOC(=O)CCc1oc(-n2ccnc2C)nc1-c1ccc(Cl)cc1` gave a melting point of 70 to 71 °C. In turn, `O=C(O)CSc1ccc(-n2cc(C3c4ccccc4C=Cc4ccccc43)c(=S)[nH]c2=O)nn1` came in with a melting point of 248 to 250 °C.

As for `CCOC(=O)c1ncn2c1c(=O)n(C)c1ccccc12`, the melting point lay in the range of 218 to 220 °C. Compound `O=C1Nc2ccccc2N2CCCC12` (stereo not given) yielded a melting point of 169 to 172 °C. In the case of `CCOC(=O)CCc1cc(CCC(=O)O)cc(Cc2cccnc2)c1` it was 62 to 64 °C; in that of `Nc1ncnc2c1ncn2C1OC(CNC=O)C(O)C1O` (stereo not given), 212 to 213 °C; in that of `CCOc1cc2c(cc1OC)C(c1ccc(OC)c(OC)c1)=NN=C(C)C2CC` (stereo not given), 125 to 127 °C.

With `Clc1ccc2nc(N3CCCCC3)nc(N3CCCCC3)c2c1`, the melting point fell in the range of 115 to 118 °C. In the case of `COc1cc(NC(C)=O)c([N+](=O)[O-])cc1C(=O)O` it was 186 to 188 °C; in that of `CCN(CC)c1ccc2nc3c4ccccc4c(=Nc4ccccn4)cc-3oc2c1`, 169 to 170 °C. Next, `O=C(O)CN1C(=O)OC[C@@H]1c1ccccc1`: 106 to 108 °C; `O=C1CCSc2sccc21`: 61 to 62 °C.

As to `O=C(O)Cc1ccc(NC(=O)C(COc2ccc(Cl)cc2)NS(=O)(=O)c2ccc(Br)cc2)cc1` (racemic), the melting point was in the range of 218 to 220 °C. In the case of `COC(=O)COc1ccc2cc(CNC(=O)c3cc(-c4ccc(Cl)cc4)oc3C(F)(F)F)ccc2c1` it was 182 to 183 °C; in that of `O=C(O)CC(CCc1ccc(O)cc1)CC(=O)O`, 142 to 144 °C; in that of `COc1ccc2cnc(Nc3ccc(N4CCCCC4)c(F)c3)nc2c1C1CCCC1`, 200 to 201 °C.

`CC(Oc1ccc(Oc2ccc(Cl)cc2Cl)cc1)C(=O)N1CCCO1` (stereo not given) came in with a melting point of 115 to 118 °C. `COC(=O)c1cccc(CC#N)c1[N+](=O)[O-]` gave a melting point of 77 to 80 °C. In the case of `NS(=O)(=O)c1cc(C(=O)OCC(=O)N2CCC(CO[N+](=O)[O-])CC2)c(NCc2ccco2)cc1Cl` it was 115 to 117 °C. In the case of `Cc1cc(-c2ccccc2O)n(-c2ccccc2)n1` it was 211 to 214 °C; in that of `COc1cc(OC)c2c(C)c(CCN3CCC(O)(c4ccccc4)CC3)c(=O)oc2c1`, 178 to 179 °C; in that of `O=c1ncc2c3c(ccc2[nH]1)OCO3`, more than 300 °C.

Consider `CCCCc1nc2c(N)nc(C)c(C)c2n1CCCCNC(=O)c1ccccc1`, for which the melting point lay within 128 to 129 °C. `CN1CCN(c2ccc(S(=O)(=O)Oc3cccc([N+](=O)[O-])c3)cc2)C1=O` came in with a melting point of 167 to 169 °C.

As for `Cc1ccc(S(=O)(=O)C2=C(C(=O)OC3CCCCC3)C(=O)C=C(C(=O)OC3CCCCC3)C2=O)cc1`, the melting point lay within 135 to 137 °C. Consider `COc1ccc(C(=O)c2cc(F)cc(F)c2)cc1`, for which the melting point was 90 °C.

Compound `CC(C)(C)OC(=O)C1CC(Cc2ccccc2)C(=O)N1C(=O)OC(C)(C)C` (stereo not given) returned a melting point of 125 °C. `CC(=O)N[C@H]1CC[C@H](CCN2CCN(c3nc(C)cc4occc34)CC2)CC1` registered a melting point of 208 °C. On to `COC1=C(OC)C(=O)C(CCCCC#CCCCCO)=C(C)C1=O`, for which the melting point is 52 to 53 °C.

As to `COCC1OC(=Nc2nccs2)c2c1nc1cc(Cl)ccc1c2O` (stereo not given), the melting point was more than 270 °C.

Take `O=C(c1ccccc1)c1cc(Cl)ccc1-n1c(CN2C(=O)c3ccccc3C2=O)nnc1CN1C(=O)c2ccccc2C1=O`: the melting point lay in the range of 250 to 251 °C. In the case of `CNC(=S)NS(=O)(=O)c1cc2c(cc1OC)OC(C)(C)C(NC(=O)c1cc(F)ccc1OC)C2` (stereo not given) it was 222 °C; in that of `CCCCCC(=O)NC(=O)C(c1ccccc1)c1ccccc1`, 87 °C. In the case of `CN(C)c1ccc(Cl)cc1[N+](=O)[O-]` it was 54 to 55 °C.

Source of the values: a melting point compilation (Tetko et al.; mined from patent text by program, amines drawn as free bases though some values may be those of a salt).
